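A five-concentration, 48-hour dose response in 96-well plates underlies each endpoint, interpolated linearly between surrounding concentrations. At the GI50, growth is halved.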 Activity calls are given as the source filed them. Cut-off read from the data, not from the text of the source: active = GI50 up to about 1.1 µM and inactive = higher.
Key:
Assay in all cases: growth of human tumour cells (NCI), 48 h
Hs-578T = system: Hs-578T
UACC-62 = system: UACC-62
LOX IMVI = system: LOX IMVI
OVCAR-3 = system: OVCAR-3
EKVX = system: EKVX
A498 = system: A498
CAKI-1 = system: CAKI-1
RPMI-8226 = system: RPMI-8226
PC-3 = system: PC-3
MDA-MB-231 = system: MDA-MB-231
SN12C = system: SN12C
HT-29 = system: HT-29
SNB-75 = system: SNB-75
SK-MEL-5 = system: SK-MEL-5
SK-MEL-28 = system: SK-MEL-28
HCT-15 = system: HCT-15
SF-539 = system: SF-539
HCC 2998 = system: HCC 2998
ACHN = system: ACHN
MDA-MB-435 = system: MDA-MB-435
HOP-62 = system: HOP-62
OVCAR-8 = system: OVCAR-8
SNB-19 = system: SNB-19
HL-60 = system: HL-60
HCT-116 = system: HCT-116
IGROV-1 = system: IGROV-1
786-0 = system: 786-0
T47D = system: T47D
TK-10 = system: TK-10
HOP-92 = system: HOP-92
KM12 = system: KM12
NCI/ADR-RES = system: NCI/ADR-RES
U-251 = system: U-251
OVCAR-5 = system: OVCAR-5
UACC-257 = system: UACC-257
OVCAR-4 = system: OVCAR-4
DU-145 = system: DU-145
SF-295 = system: SF-295
SW-620 = system: SW-620
M14 = system: M14
UO-31 = system: UO-31
MDA-N = system: MDA-N
A549 = system: A549
NCI-H522 = system: NCI-H522
K562 = system: K562
Malme-3M = system: Malme-3M
MCF7 = system: MCF7
SK-OV-3 = system: SK-OV-3
NCI-H226 = system: NCI-H226
MOLT-4 = system: MOLT-4
CCRF-CEM = system: CCRF-CEM
NCI-H23 = system: NCI-H23
NCI-H460 = system: NCI-H460
COLO 205 = system: COLO 205
BT-549 = system: BT-549
SK-MEL-2 = system: SK-MEL-2
SR = system: SR
RXF 393 = system: RXF 393
SF-268 = system: SF-268

O=S1OC[C@H](CCCl)O1 (stereo not given in full)
GI50 (Hs-578T): > 100 µM (inactive)
GI50 (UACC-62): > 100 µM (inactive)
GI50 (LOX IMVI): 83.6 µM (inactive)
GI50 (OVCAR-3): > 100 µM (inactive)
GI50 (EKVX): > 100 µM (inactive)
GI50 (A498): > 100 µM (inactive)
GI50 (CAKI-1): > 100 µM (inactive)
GI50 (RPMI-8226): > 100 µM (inactive)
GI50 (PC-3): > 100 µM (inactive)
GI50 (MDA-MB-231): > 100 µM (inactive)
GI50 (SN12C): > 100 µM (inactive)
GI50 (HT-29): > 100 µM (inactive)
GI50 (SNB-75): > 100 µM (inactive)
GI50 (SK-MEL-5): > 100 µM (inactive)
GI50 (SK-MEL-28): 69.5 µM (inactive)
GI50 (HCT-15): > 100 µM
GI50 (SF-539): > 100 µM (inactive)
GI50 (HCC 2998): > 100 µM (inactive)
GI50 (ACHN): > 100 µM (inactive)
GI50 (MDA-MB-435): > 100 µM (inactive)
GI50 (HOP-62): > 100 µM (inactive)
GI50 (OVCAR-8): > 100 µM (inactive)
GI50 (SNB-19): > 100 µM (inactive)
GI50 (HL-60): > 100 µM (inactive)
GI50 (HCT-116): > 100 µM (inactive)
GI50 (IGROV-1): > 100 µM (inactive)
GI50 (786-0): > 100 µM (inactive)
GI50 (T47D): > 100 µM (inactive)
GI50 (TK-10): > 100 µM (inactive)
GI50 (HOP-92): > 100 µM (inactive)
GI50 (KM12): 13.8 µM (inactive)
GI50 (NCI/ADR-RES): > 100 µM (inactive)
GI50 (U-251): > 100 µM (inactive)
GI50 (OVCAR-5): > 100 µM (inactive)
GI50 (UACC-257): > 100 µM (inactive)
GI50 (OVCAR-4): > 100 µM (inactive)
GI50 (DU-145): > 100 µM (inactive)
GI50 (SF-295): > 100 µM (inactive)
GI50 (SW-620): > 100 µM (inactive)
GI50 (M14): > 100 µM (inactive)
GI50 (UO-31): > 100 µM (inactive)
GI50 (MDA-N): > 100 µM (inactive)
GI50 (A549): > 100 µM (inactive)
GI50 (NCI-H522): > 100 µM (inactive)
GI50 (K562): > 100 µM (inactive)
GI50 (Malme-3M): > 100 µM (inactive)
GI50 (MCF7): > 100 µM (inactive)
GI50 (SK-OV-3): > 100 µM (inactive)
GI50 (NCI-H226): > 100 µM (inactive)
GI50 (MOLT-4): > 100 µM (inactive)
GI50 (CCRF-CEM): > 100 µM (inactive)
GI50 (NCI-H23): > 100 µM (inactive)
GI50 (NCI-H460): > 100 µM (inactive)
GI50 (COLO 205): > 100 µM (inactive)
GI50 (BT-549): > 100 µM (inactive)
GI50 (SK-MEL-2): > 100 µM (inactive)
GI50 (SR): > 100 µM (inactive)

O=P(c1ccccc1)(c1ccccc1)N1O[C@@H](c2ccccc2)C=C[C@H]1c1ccccc1
GI50 (Hs-578T): 14.2 µM (inactive)
GI50 (UACC-62): 6.17 µM (inactive)
GI50 (LOX IMVI): 7.19 µM (inactive)
GI50 (OVCAR-3): 11.6 µM (inactive)
GI50 (EKVX): 10.4 µM (inactive)
GI50 (CAKI-1): 5.66 µM (inactive)
GI50 (RPMI-8226): 5.79 µM (inactive)
GI50 (PC-3): 2.96 µM (inactive)
GI50 (MDA-MB-231): 8.24 µM (inactive)
GI50 (SN12C): 4.36 µM (inactive)
GI50 (HT-29): 9.75 µM (inactive)
GI50 (SNB-75): 13.3 µM (inactive)
GI50 (SK-MEL-5): 11.4 µM (inactive)
GI50 (SK-MEL-28): 17.3 µM (inactive)
GI50 (HCT-15): 10 µM
GI50 (SF-539): 16.2 µM (inactive)
GI50 (HCC 2998): 13.7 µM (inactive)
GI50 (ACHN): 10.2 µM (inactive)
GI50 (MDA-MB-435): 4.2 µM (inactive)
GI50 (HOP-62): 13.1 µM (inactive)
GI50 (OVCAR-8): 12.8 µM (inactive)
GI50 (SNB-19): 14.8 µM (inactive)
GI50 (HL-60): 5.24 µM (inactive)
GI50 (HCT-116): 4.11 µM (inactive)
GI50 (IGROV-1): 10.8 µM (inactive)
GI50 (786-0): 10.4 µM (inactive)
GI50 (T47D): 4.61 µM (inactive)
GI50 (TK-10): 14 µM (inactive)
GI50 (HOP-92): 11.6 µM (inactive)
GI50 (KM12): 14.5 µM (inactive)
GI50 (NCI/ADR-RES): 7.13 µM (inactive)
GI50 (U-251): 4.37 µM (inactive)
GI50 (OVCAR-5): 16 µM (inactive)
GI50 (UACC-257): 11.9 µM (inactive)
GI50 (OVCAR-4): 2.57 µM (inactive)
GI50 (DU-145): 13 µM (inactive)
GI50 (SF-295): 11.6 µM (inactive)
GI50 (SW-620): 12.9 µM (inactive)
GI50 (M14): 10.9 µM (inactive)
GI50 (UO-31): 5.13 µM (inactive)
GI50 (MDA-N): 3.31 µM (inactive)
GI50 (A549): 8.81 µM (inactive)
GI50 (NCI-H522): 9.33 µM (inactive)
GI50 (K562): 6.17 µM (inactive)
GI50 (Malme-3M): 14.5 µM (inactive)
GI50 (MCF7): 3.4 µM (inactive)
GI50 (RXF 393): 10 µM (inactive)
GI50 (SK-OV-3): 15.1 µM (inactive)
GI50 (SF-268): 12.4 µM (inactive)
GI50 (NCI-H226): 11.9 µM (inactive)
GI50 (MOLT-4): 5.32 µM (inactive)
GI50 (CCRF-CEM): 10.5 µM (inactive)
GI50 (NCI-H23): 10.8 µM (inactive)
GI50 (NCI-H460): 5.53 µM (inactive)
GI50 (COLO 205): 12.3 µM (inactive)
GI50 (BT-549): 17.5 µM (inactive)
GI50 (SK-MEL-2): 12 µM (inactive)
GI50 (SR): 4.46 µM (inactive)
